Laboratory results taken from US5183824A, “Azole derivatives and antifungal drugs containing the same as an active component” (Kao Corporation, priority 1989, dated 1993).
≈ marks a conversion by molar mass, not a printed value.

Tests used:
[1] = system: Candida sp.; assay: Antifungal activities (in vitro), MIC on Sabouraud's agar medium; type: cell-based; settings: 48 h, 37° C., growth evaluated two days after
Description: (§1) A plate of a series of diluted specimen was prepared under steriled conditions using Sabouraud's agar medium (glucose 2%, peptone 1%, agar 1.5%), to which 1 μl of each of the test fungus solutions was inoculated by using a quantitative platinum loop.

[2] = system: Trichophyton sp.; assay: as above; type: cell-based; settings: 168 h, 27° C., growth evaluated seven days after
Description: as §1

[3] = system: C. albicans (TIMM 0144); assay: Direct cell-membrane damaging (potassium ion leakage); type: cell-based; settings: test compound 40 μg/ml, 15 minutes, atomic absorption spectrometry
Description: Direct cell-membrane damaging, which is one of the characteristic actions of azole antifungal drugs, was evaluated.
As a test strain, C. albicans (TIMM 0144) was used. Fresh cultures of C. albicans (TIMM 0144) were washed to make a deionized aqueous solution containing the same at a concentration of 1×10^8 /ml. In the presence of a test compound at a concentration of 40 μg/ml, potassium ion leakage concentration was measured 15 minutes after by way of atomic absorption spectrometry to evaluate the direct cell-membrane damaging.

[4] = system: T. mentagrophytes (TIMM 1189); assay: Antifungal activities (in vivo), guinea pig skin infection, retro-culture; parameters: species or system Hartley white female guinea pigs; settings: guinea pigs, 1% test compound in white petrolatum applied once a day for 6 days from fifth day of inoculation
From the text: Hartley white female guinea pigs were used in this test. The back hair were depilated to form a round area having a diameter of 2 cm. 1×10^8microconidia of T. mentagrophytes (TIMM 1189) were inoculated therein for infection. From the fifth day of the inoculation, a composition containing 1% test compound (base: white petrolatum) was applied once a day for 6 consecutive days. Thereafter, the animals were left for 1 day, and slaughtered while removing the blood. The suffered skin was taken, cut and subjected to the retro-culture. The negative ratio of the strain was measured.

[5] = Acute toxicity; settings: mouse, in vivo, po; dosed orally on mice

| Compound | MIC [1] [µg/mL] | MIC [2] [µg/mL] | Potassium ion leakage rate (%) [3] [%] | Negative ratio (%) [4] [%] | LD50 [5] [mg/kg] |
| --- | --- | --- | --- | --- | --- |
| CC(C)=CCC/C(C)=C/CSC(Cn1ccnc1)c1ccc(Cl)cc1Cl (centres unmarked) [Compound 10, 1-[2-(2,4-dichlorophenyl)-2-((E)-3,7-dimethylocta-2,6-dienylthio)ethyl]-1H-imidazole] | > 80 | 20 (≈ 48.8 µM) | 47 | 37 | – |
| Clc1ccccc1C(c1ccccc1)(c1ccccc1)n1ccnc1 [Clotrimazole, clotrimazole, reference compound] | – | – | – | 24 | – |
| CC(C)=CCC/C(C)=C/CO/N=C(\Cn1ccnc1)c1ccc(Cl)cc1Cl [Compound 11, (Z)-1-(2,4-dichlorophenyl)-2-(1H-imidazole-1-yl)-O-((E)-3,7-dimethylocta-2,6-dienyl) ethanonoxime] | 40 (≈ 98.4 µM) | 5 to 20 (≈ 12.3 to 49.2 µM) | – | – | – |
| CC(C)=CCC/C(C)=C\COC(Cn1ccnc1)c1ccc(Cl)cc1Cl (centres unmarked) [Compound 6, 1-[2-(2,4-dichlorophenyl)-2-((Z)-3,7-dimethylocta-2,6-dienyloxy)ethyl]-1H-imidazole] | 20 to 40 (≈ 50.8 to 102 µM) | 5 to 10 (≈ 12.7 to 25.4 µM) | 74 | 89 | – |
| CC(C)=CCC/C(C)=C/CN(C)C(Cn1ccnc1)c1ccc(Cl)cc1Cl (centres unmarked) [Compound 9, 1-[2-(2,4-dichlorophenyl)-2-{N-((E)-3,7-dimethylocta-2,6-dienyl)-N-methylamino}ethyl]-1H-imidazole] | 40 (≈ 98.4 µM) | 10 to 20 (≈ 24.6 to 49.2 µM) | – | 34 | – |
| CC(C)=CCC/C(C)=C/COC(Cn1ccnc1)c1ccccc1C(F)(F)F (centres unmarked) [Compound 4, 1-[2-((E)-3,7-dimethylocta-2,6-dienyloxy)-2-(2-trifluoromethylphenyl)ethyl]-1H-imidazole] | 20 (≈ 51 µM) | 1.25 to 20 (≈ 3.18 to 51 µM) | – | – | – |
| CC(C)=CCC/C(C)=C/CNC(Cn1ccnc1)c1ccc(Cl)cc1Cl (centres unmarked) [Compound 8, 1-[2-(2,4-dichlorophenyl)-2-((E)-3,7-dimethylocta-2,6-dienylamino)ethyl]-1H-imidazole] | 40 (≈ 102 µM) | 10 to 20 (≈ 25.5 to 51 µM) | 65 | 46 | – |
| CC(C)=CCC/C(C)=C/COC(Cn1ccnc1)c1ccccc1 (centres unmarked) [Compound 5, 1-[2-((E)-3,7-dimethylocta-2,6-dienyloxy)-2-phenylethyl]-1H-imidazole] | 20 (≈ 61.6 µM) | 5 (≈ 15.4 µM) | – | – | – |
| CC(C)=CCC/C(C)=C/COC(Cn1ccnc1)c1ccc(Cl)cc1Cl (centres unmarked) [Compound 1, 1-[2-(2,4-dichlorophenyl)-2-((E)-3,7-dimethylocta-2,6-dienyloxy)ethyl]-1H-imidazole] | 40 (≈ 102 µM) | 5 to 10 (≈ 12.7 to 25.4 µM) | 81 | 95 | ≥ 1000 |
| CC(C)=CCC/C(C)=C/COC(Cn1cncn1)c1ccc(Br)cc1 (centres unmarked) [Compound 7, 1-[2-(4-bromophenyl)-2-((E)-3,7-dimethylocta-2,6-dienyloxy)ethyl]-1H-triazole] | > 80 | > 80 | – | – | – |
| Clc1ccc(COC(Cn2ccnc2)c2ccc(Cl)cc2Cl)c(Cl)c1 (centres unmarked) [Miconazole, miconazole, reference compound] | – | – | – | 27 | – |
| CC(C)=CCC/C(C)=C/CC/C(C)=C/COC(Cn1ccnc1)c1ccc(Cl)cc1Cl (centres unmarked) [Compound 2, 1-[2-(2,4-dichlorophenyl)-2-((E,E)-3,7,11-trimethyldodeca-2,6,10-trienyloxy)ethyl]-1H-imidazole] | > 80 | 40 to 80 (≈ 86.7 to 173 µM) | 55 | – | – |
| CC(C)=CCC/C(C)=C/COC(Cn1ccnc1)c1ccccc1[N+](=O)[O-] (centres unmarked) [Compound 3, 1-[2-((E)-3,7-dimethylocta-2,6-dienyloxy)-2-(2-nitrophenyl)ethyl]-1H-imadazole] | 20 to 40 (≈ 54.1 to 108 µM) | 0.16 to 5 (≈ 0.433 to 13.5 µM) | – | – | – |
